# Where a SMILES comes first, the peptide text is derived from it.
# Target: T1, Interleukin-23 receptor (Homo sapiens, UniProt Q5VWK5)
# T1 sequence (Q5VWK5 whole entry): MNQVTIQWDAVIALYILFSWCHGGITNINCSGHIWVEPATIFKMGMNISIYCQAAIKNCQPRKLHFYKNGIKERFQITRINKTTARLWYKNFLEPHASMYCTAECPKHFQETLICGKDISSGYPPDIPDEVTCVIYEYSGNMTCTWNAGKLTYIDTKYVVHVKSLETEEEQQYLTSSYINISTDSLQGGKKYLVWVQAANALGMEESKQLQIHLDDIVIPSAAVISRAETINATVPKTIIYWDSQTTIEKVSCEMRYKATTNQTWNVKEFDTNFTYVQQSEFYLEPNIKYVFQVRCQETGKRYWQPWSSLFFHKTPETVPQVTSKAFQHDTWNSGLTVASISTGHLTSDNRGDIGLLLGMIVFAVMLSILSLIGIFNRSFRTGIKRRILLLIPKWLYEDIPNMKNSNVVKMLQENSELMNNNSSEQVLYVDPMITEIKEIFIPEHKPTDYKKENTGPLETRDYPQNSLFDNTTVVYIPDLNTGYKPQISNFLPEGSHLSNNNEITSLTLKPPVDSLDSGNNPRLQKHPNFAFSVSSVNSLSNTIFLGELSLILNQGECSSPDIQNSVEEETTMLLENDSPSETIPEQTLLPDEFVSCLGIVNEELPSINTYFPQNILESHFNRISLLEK
# Assay: Inhibition of interleukin-23 binding to human interleukin-23 receptor incubated for 2 hrs by competitive binding ELISA
row,IC50 [µM],Compound
1,0.1 to 1,CC(=O)N[C@@H](CS)C(=O)N[C@@H](C)C(=O)N[C@@H](CC(=O)O)C(=O)N[C@@H](Cc1c[nH]c2ccccc12)C(=O)N[C@H](C(=O)N[C@@H](CS)C(=O)N[C@@H](Cc1ccc(O)cc1)C(=O)N[C@@H](Cc1c[nH]c2ccccc12)C(=O)N[C@@H](Cc1cnc[nH]1)C(=O)N[C@H](C(=O)N[C@@H](Cc1ccccc1)C(=O)NCC(=O)N[C@@H](C)C(=O)N1CCC[C@H]1C(=O)N[C@H](CCCCN)C(=O)O)[C@@H](C)O)C(C)C
2,0.5 to 1,CC(=O)N[C@H](C(=O)N[C@@H](CCC(N)=O)C(=O)N[C@@H](Cc1ccccc1)C(=O)N[C@@H](CC(=O)O)C(=O)N[C@@H](CS)C(=O)N[C@@H](CCCNC(=N)N)C(=O)N[C@H](C(=O)N[C@@H](Cc1c[nH]c2ccccc12)C(=O)N[C@@H](CCC(=O)O)C(=O)N[C@@H](CS)C(=O)N[C@@H](Cc1ccc(O)cc1)C(=O)N[C@@H](Cc1c[nH]c2ccccc12)C(=O)N[C@@H](Cc1cnc[nH]1)C(=O)N[C@H](C(=O)N[C@@H](Cc1ccccc1)C(=O)NCC(N)=O)[C@@H](C)O)[C@@H](C)O)[C@@H](C)O
3,> 3,CC(=O)N[C@H]1CCSC[C@@H](C(=O)N[C@@H](Cc2ccc(OCCN)cc2)C(=O)N[C@@H](Cc2ccc3ccccc3c2)C(=O)N[C@@](C)(CCCCN)C(=O)N[C@@H](CCC(=O)O)C(=O)N[C@@H](CC(N)=O)C(=O)NCC(N)=O)NC(=O)[C@H](CCC(N)=O)NC(=O)[C@H](CCCNCc2ccccc2)NC(=O)[C@H]([C@@H](C)O)NC(=O)[C@H](CCC(N)=O)NC1=O
4,< 0.5,CC(=O)N[C@@H](CS)C(=O)N[C@@H](CCC(N)=O)C(=O)N[C@H](C(=O)N[C@@H](Cc1c[nH]c2ccccc12)C(=O)N[C@@H](CCC(N)=O)C(=O)N[C@@H](CS)C(=O)N[C@@H](Cc1ccc(O)cc1)C(=O)N[C@@H](Cc1c[nH]c2ccccc12)C(=O)N[C@@H](CCCNC(=N)N)C(=O)N[C@@H](CCC(=O)O)C(=O)N[C@@H](CC(N)=O)C(=O)NCC(=O)NCCOCC(=O)N[C@H](CCCNC(=N)N)C(N)=O)[C@@H](C)O
5,0.1 to 1,CC(=O)N[C@@H](C)C(=O)N[C@H](C(=O)N[C@@H](CC(=O)O)C(=O)N[C@@H](Cc1c[nH]c2ccccc12)C(=O)N[C@H](C(=O)N[C@@H](CS)C(=O)N[C@@H](Cc1ccc(O)cc1)C(=O)N[C@@H](Cc1c[nH]c2ccccc12)C(=O)N[C@@H](CCCNC(=N)N)C(=O)N[C@@H](CCCCN)C(=O)N[C@@H](Cc1ccccc1)C(=O)NCC(=O)NCCOCC(=O)N[C@H](CCCCN)C(N)=O)C(C)C)C(C)(C)S
6,> 1,CC(=O)N[C@@H](CS)C(=O)N[C@@H](C)C(=O)N[C@@H](CC(=O)O)C(=O)N[C@@H](Cc1c[nH]c2ccccc12)C(=O)N[C@H](C(=O)N[C@@H](CS)C(=O)N[C@@H](Cc1ccc(O)cc1)C(=O)N[C@@H](Cc1c[nH]c2ccccc12)C(=O)N[C@@H](Cc1cnc[nH]1)C(=O)N[C@H](C(=O)N[C@@H](Cc1ccccc1)C(=O)NCC(N)=O)[C@@H](C)O)C(C)C
7,> 30,CC(=O)N[C@@H](CS)C(=O)N[C@@H](CCC(N)=O)C(=O)N[C@H](C(=O)N[C@@H](Cc1c[nH]c2ccccc12)C(=O)N[C@@H](CCC(N)=O)C(=O)N[C@@H](CS)C(=O)N[C@@H](Cc1ccc(O)cc1)C(=O)N[C@@H](Cc1ccc(Cl)c(Cl)c1)C(=O)N[C@@H](CCCNC(=N)N)C(=O)N[C@H](C(=O)N[C@@H](CC(N)=O)C(=O)NCC(=O)NCCOCC(=O)N[C@H](CCCCN)C(N)=O)C(C)C)[C@@H](C)O
8,< 0.5,CC(=O)N[C@@H](CS)C(=O)N[C@@H](CCCNC(=N)N)C(=O)N[C@H](C(=O)N[C@@H](Cc1c[nH]c2ccccc12)C(=O)N[C@@H](CCC(N)=O)C(=O)N[C@@H](CS)C(=O)N[C@@H](Cc1ccc(O)cc1)C(=O)N[C@@H](Cc1c[nH]c2ccccc12)C(=O)N[C@@H](Cc1cnc[nH]1)C(=O)N[C@@H](CCC(=O)O)C(=O)N[C@@H](Cc1ccc(O)cc1)C(=O)NCC(N)=O)[C@@H](C)O (Ac-CRTWQCYWHEYG-NH2)
9,> 1,CC(=O)N[C@@H](CS)C(=O)N[C@@H](CCC(N)=O)C(=O)N[C@H](C(=O)N[C@@H](Cc1c[nH]c2ccccc12)C(=O)N[C@@H](CCC(N)=O)C(=O)N[C@@H](CS)C(=O)N[C@@H](Cc1ccc(O)cc1)C(=O)N[C@@H](Cc1c[nH]c2ccccc12)C(=O)N[C@H](CCCNC(=N)N)C(=O)N[C@@H](CCC(=O)O)C(=O)N[C@@H](CC(N)=O)C(=O)NCC(=O)NCCOCC(=O)N[C@H](CCCCN)C(N)=O)[C@@H](C)O
10,< 0.5,CC(=O)N[C@@H](CS)C(=O)N[C@@H](CCC(N)=O)C(=O)N[C@H](C(=O)N[C@@H](Cc1c[nH]c2ccccc12)C(=O)N[C@@H](CCC(N)=O)C(=O)N[C@@H](CS)C(=O)N[C@@H](Cc1ccc(O)cc1)C(=O)N[C@@H](Cc1c[nH]c2ccccc12)C(=O)N[C@@H](CCCNC(=N)N)C(=O)N[C@@H](CCCCN)C(=O)N[C@@H](CC(N)=O)C(=O)NCC(=O)NCCOCC(=O)N[C@H](CCCCN)C(N)=O)[C@@H](C)O
11,> 3,CC(=O)N[C@H]1CCSC[C@@H](C(=O)N[C@@H](Cc2ccc(OCCN)cc2)C(=O)N[C@@H](Cc2ccc3ccccc3c2)C(=O)N[C@@](C)(CCCCN)C(=O)N[C@@H](CCC(=O)O)C(=O)N[C@@H](CC(N)=O)C(=O)NCC(N)=O)NC(=O)[C@H](CCC(N)=O)NC(=O)[C@H](c2ccc(OCCN)cc2)NC(=O)[C@H]([C@@H](C)O)NC(=O)[C@H](CCC(N)=O)NC1=O
12,> 1,CC[C@H](C)[C@H](NC(=O)[C@H](Cc1cnc[nH]1)NC(=O)[C@H](Cc1c[nH]c2ccccc12)NC(=O)[C@H](Cc1ccc(O)cc1)NC(=O)[C@H](CS)NC(=O)[C@H](CCC(=O)O)NC(=O)[C@H](Cc1c[nH]c2ccccc12)NC(=O)[C@H](CC(=O)O)NC(=O)[C@H](CO)NC(=O)[C@@H](N)CS)C(=O)N[C@@H](Cc1ccccc1)C(=O)NCC(N)=O (H-CSDWECYWHIFG-NH2)
13,0.1 to 1,CC(=O)NC1C/C=C\CCC(C(=O)N[C@@H](Cc2ccc(O)cc2)C(=O)N[C@@H](Cc2c[nH]c3ccccc23)C(=O)N[C@@H](CCCNC(=N)N)C(=O)N[C@@H](CCCCN)C(=O)N[C@@H](Cc2ccccc2)C(=O)NCC(=O)NCCOCC(=O)N[C@H](CCCCN)C(N)=O)NC(=O)[C@H](CCC(N)=O)NC(=O)[C@H](Cc2c[nH]c3ccccc23)NC(=O)[C@H]([C@@H](C)O)NC(=O)[C@H](CCCNC(=N)N)NC1=O (stereo not given in full)
14,0.5 to 1,C[C@@H](O)[C@H](NC(=O)[C@H](CC(=O)O)NC(=O)[C@@H](N)CS)C(=O)N[C@@H](Cc1c[nH]c2ccccc12)C(=O)N[C@@H](CCCCN)C(=O)N[C@@H](CS)C(=O)N[C@@H](Cc1ccc(O)cc1)C(=O)N[C@@H](Cc1c[nH]c2ccccc12)C(=O)N[C@@H](Cc1cnc[nH]1)C(=O)N[C@@H](CCCNC(=N)N)C(=O)N[C@@H](CCC(N)=O)C(=O)N[C@@H](CO)C(N)=O (H-CDTWKCYWHRQS-NH2)
15,0.5 to 1,N=C(N)NCCC[C@H](NC(=O)[C@H](Cc1cnc[nH]1)NC(=O)[C@H](Cc1c[nH]c2ccccc12)NC(=O)[C@H](Cc1ccc(O)cc1)NC(=O)[C@H](CS)NC(=O)[C@H](CCC(=O)O)NC(=O)[C@H](Cc1c[nH]c2ccccc12)NC(=O)[C@H](CC(N)=O)NC(=O)[C@@H]1CCCN1C(=O)[C@@H](N)CS)C(=O)N[C@@H](Cc1ccccc1)C(=O)NCC(N)=O (H-CPNWECYWHRFG-NH2)
16,> 30,CC(=O)N[C@@H](C)C(=O)N[C@H](C(=O)N[C@@H](CC(=O)O)C(=O)N[C@@H](Cc1c[nH]c2ccccc12)C(=O)N[C@H](C(=O)N[C@H](C(=O)N[C@@H](Cc1ccc(O)cc1)C(=O)N[C@@H](Cc1c[nH]c2ccccc12)C(=O)N[C@@H](CCCN)C(=O)N[C@@H](CN)C(=O)N[C@@H](Cc1ccccc1)C(=O)NCC(=O)NCCOCC(=O)N[C@H](CCCCN)C(N)=O)C(C)(C)S)C(C)C)C(C)(C)S
17,0.1 to 1,CC(=O)N[C@@H](CS)C(=O)N[C@@H](C)C(=O)N[C@@H](CC(=O)O)C(=O)N[C@@H](Cc1c[nH]c2ccccc12)C(=O)N[C@H](C(=O)N[C@@H](CS)C(=O)N[C@@H](Cc1ccc(O)cc1)C(=O)N[C@@H](Cc1c[nH]c2ccccc12)C(=O)N[C@@H](Cc1cnc[nH]1)C(=O)N[C@H](C(=O)N[C@@H](Cc1ccccc1)C(=O)NCC(=O)N[C@@H](C)C(=O)N1CC[C@H]1C(=O)N[C@H](CCCCN)C(=O)O)[C@@H](C)O)C(C)C
18,> 6,CC(=O)N[C@@H](CCC(N)=O)C(=O)N[C@H](C(=O)N[C@@H](Cc1c[nH]c2ccccc12)C(=O)N[C@@H](CCC(N)=O)C(=O)N[C@@H](CS)C(=O)N[C@@H](Cc1ccc(O)cc1)C(=O)N[C@@H](Cc1c[nH]c2ccccc12)C(=O)N(C)[C@@H](CC(C)C)C(=O)N[C@@H](CCC(=O)O)C(=O)N[C@@H](CC(N)=O)C(=O)NCC(N)=O)[C@@H](C)O
19,< 0.5,CC(=O)N[C@@H](CS)C(=O)N[C@@H](C)C(=O)N[C@@H](CC(=O)O)C(=O)N[C@@H](Cc1c[nH]c2ccccc12)C(=O)N[C@H](C(=O)N[C@@H](CS)C(=O)N[C@@H](Cc1ccc(O)cc1)C(=O)N[C@@H](Cc1c[nH]c2ccccc12)C(=O)N[C@@H](Cc1cnc[nH]1)C(=O)N[C@H](C(=O)N[C@@H](Cc1ccccc1)C(=O)NCC(=O)N[C@@H](C)C(=O)N[C@H](CCCCN)C(=O)O)[C@@H](C)O)C(C)C
20,0.5 to 1,CC(C)[C@H](NC(=O)[C@H](Cc1c[nH]c2ccccc12)NC(=O)[C@H](CC(=O)O)NC(=O)[C@H](C)NC(=O)[C@@H](N)CS)C(=O)N[C@@H](CS)C(=O)N[C@@H](Cc1ccc(O)cc1)C(=O)N[C@@H](Cc1cccc2ccccc12)C(=O)N[C@@H](Cc1cnc[nH]1)C(=O)N[C@H](C(=O)N[C@@H](Cc1ccccc1)C(=O)NCC(N)=O)[C@@H](C)O
